From patent US7534606B2, “Placental stem cell and methods thereof” (National Health Research Institutes, priority 2004, dated 2009)
Read-outs that look alike come from different tables or passages of the source.

Assays:
placental stem cells [1] = type: cell-based
Protocol: Immunocytochemistry and immunofluorescence and RT-PCR. Cultured cells were fixed with 4% paraformaldehyde for 5 minutes at room temperature and permeabilized with 0.1% Triton-X 100 for 20 minutes. Slides were then incubated sequentially with primary antibody overnight at 4° C. For immunocytochemistry, primary antibodies against NSE (Sigma) (1:25) was applied, followed by biotinylated anti-rabbit antibody and an avidin-biotin conjugate of hourseradish peroxidase (Vector Laboratories, Burlingame, Calif., USA). For immunofluorescence staining, primary antibodies against NeuN (Chemicon International Inc., Temecula, Calif., USA) (1:100), Nestin (BD Biosciences) (1:100), GFAP (glial fibrillary acidic protein, Chemicon International Inc.) (1:100), MAP2 (microtubule-associated protein 2, Chemicon International Inc.) (1:200), and NG2 (Chemicon International Inc.) (1:50) were used. Cy3 or fluorescein-labeled secondary antibodies were then applied for 1 hour at 37° C., and stained with 4′, 6-diamino-2-phenylindole (DAPI) (KPL Inc. Gaithersburg, Mass., USA) to identify cell nuclei. Cells were visualized by confocal fluorescence microscopy (Zeiss, LSM 510).
For RT-PCR, total RNA was isolated from cultured cells using Purescript (Gentra System, Minneapolis, Minn., USA), and 2 μg of total RNA was used for reverse transcription using Superscript II (Invitrogen, Carlsbad, Calif., USA). The cDNA was synthesized using Taq Platinum (Invitrogen) and 0.025 μg/μl oligo(dT). An equal volume of each sample was used to amplify human genes with 1 μM of each of the following primers: for the human nestin gene 5′-CCC TGA CCA CTC CAG TTT A-3′ and 5′-GAG TCC TGG ATT TCCTTC-3′; for the human Oct-4 gene 5′-GTGAAGCTGGAGAAGGAGAAGCTG-3′ and 5′-CAAGGGCCGCAGCTTACACATG-3′; and for the neurofilament light-chain (NF-L) gene 5′-CCC GAC TCA GTT TCA CC-3′ and 5′-CAG CCT TAG ACG CCT C-3′. Human glyceraldehyde-3-phosphate dehydrogenase (GAPDH) primers (Clontech, Palo Alto, Calif., USA) were used as internal controls for the PCR reactions. The cDNA from each sample was amplified for 30 cycles (1 min at 94° C., 1 min at 65° C., and 1 min at 72° C.). The PCR products were then separated by electrophoresis on 1.5% agarose gels. The sequence of each PCR product was confirmed using automatic sequencing.
Placental stem cells obtained according to Example 1 were plated on 35 mm culture dishes without coating, or if coated, with fibronectin, gelatin, or poly-L-Lysine (Sigma). Cells were cultured in serum-free DMEM-LG (Gibco) at various densities and exposed to either 10 ng/ml basic fibroblastic growth factor (b-FGF)/20 ng/ml epidermal growth factor (EGF) (both from R&D), retinoic acid (RA) (Sigma) at 10^−6M, β-mercaptoethanol/dimethysulfoxide/butylated hydroxyanisole (1×10^−5M βME/2% DMSO/100 μM BHA) (Sigma), or 0.5 mM 1-methyl-3-isobutylxanthine (IBMX, Sigma) for 3 to 6 days. Cells were then harvested for RT-PCR and immunocytochemical analysis as described above.
Differentiation to neural-like cells was quantified as a percentage of the total number of […] stem cells grown under differentiation conditions. Cells were stained for NSE expression and analyzed under an invert microscope. Five non-overlapping low power images were captured from each sample. […] Total cell count was determined by staining with 4′,6-diamidino-2-phenylindole (DAPI), which stains nuclei specifically, or with anti-human nuclei antibody (1:50) (Chemicon International Inc.).

placental stem cells [2] = type: cell-based; conditions: after 24 hours of treatment; three independent experiments
[3] = test system: human marrow stromal cells; conditions: Deng et al. 2001; cited from earlier work
[4] = IBMX-treated cultures, immunofluorescence

Row | Compound | morphological changes (cytoplasm retracted, extensions) (placental stem cells [1]; 3 to 6 days in medium, RA 10^−6M, IBMX 0.5 mM, compared with expansion medium) | NSE expression compared with control cells (placental stem cells [1]; 3 to 6 days in medium, immunocytochemical staining) | astrocytes (GFAP) of the total cell count (placental stem cells [1]; [4]) [%] | neurons (MAP2) of the total cell count (placental stem cells [1]; [4]) | oligodendrocytes (NG2) of the total cell count (placental stem cells [1]; [4]) [%] | placental stem cells differentiated (placental stem cells [1]; after 5 days of treatment, three independent experiments) | expression of neural filament light chain (NF-L) by RT-PCR (placental stem cells [1]; after five days of treatment) | dose dependence of induced differentiation (placental stem cells [1]; data not shown) | effect of removal from the culture medium (placental stem cells [1]; data not shown) | time to first morphological changes (placental stem cells [1]; in a portion of placental stem cells) [hours] | placental stem cells differentiated (placental stem cells [2]) [%] | expression of GFAP [3] | expression of NSE [3] | differentiation into neural-like cells (placental stem cells [1]; after 6 days of incubation, RA 10^−6M, IBMX 0.5 mM, retracted cell bodies and positive NSE staining, % of total cells)
1 | CC(C)Cn1c(=O)n(C)c(=O)c2[nH]cnc21 [IBMX, 1-methyl-3-isobutylxanthine] | morphological changes | higher levels of NSE | ~1 | approximately 16% | ~17 | more than 40% | detected | dose-dependent effect | reversion of the cells to their original phenotype | 2 | 7 | no expression of GFAP | increased expression of NSE | –
2 | CC1=C(/C=C/C(C)=C/C=C/C(C)=C/C(=O)O)C(C)(C)CCC1 [RA, retinoic acid] | – | – | – | – | – | – | – | – | – | – | – | – | – | about 10%
